Data reported in patent US11753408B2, “Compounds and method for blocking transmission of malarial parasite” (The United States of America, as represented by the …, priority 2016, dated 2023).
pEC50: −log10 of the molar value.

Legend:
[1] = tested on: Stage III-V gametocytes (blood stage P. falciparum parasites); test: In vitro drug activity on gametocytes (AlamarBlue viability assay); assay type: cell-based, Plasmodium falciparum; details: read-out: Gametocyte EC50
Method in brief: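 P. falciparum 3D7 stage III–V gametocytes (also HB3, Dd2), enriched by 50 mM N-acetylglucosamine and Percoll gradient, seeded at 20,000/well with compound for 72 h at 37° C, 5% CO2. AlamarBlue then added for 24 h; viability read as fluorescence (Ex 525, Em 598 nm).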

[2] = tested on: Asexual parasites of P. falciparum strain 3D7; test: In vitro drug activity on asexual parasites (SYBR Green assay); assay type: cell-based, Plasmodium falciparum
Method in brief: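 3D7 parasites at 0.5% parasitemia and 2% hematocrit were exposed to drugs (DMSO ≤0.5%) for 72 h under standard culture conditions, in duplicate. After freeze-thaw lysis, SYBR Green I lysis buffer was added for 30 min at room temperature, and fluorescence was read at 490/520 nm.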

mTOR = mTOR (Homo sapiens, UniProt P42345); test: mTOR activity (no method described); assay type: biochemical
[3] = Microsomal stability (rat); assay type: in vitro ADME; details: rat microsomes
Solubility at pH 7.4 = assay type: physicochemical
PAMPA permeability = assay type: in vitro ADME

pEC50 [2]	mTOR (mTOR)	Microsomal Stability (rat) T1/2 [3]	Sol @ pH 7.4 (Solubility at pH 7.4)	PAMPA Permeability (PAMPA permeability)	Compound	pEC50 [1]
6.27	5.732 µM	9.6 min	63 ug/mL	98.3 ×10⁻⁶ cm/s	CN(C)C(=O)c1cc(-c2ccc3ncc4ccc(=O)n(-c5ccc(C(=O)N6CCOCC6)cc5)c4c3c2)ccc1Cl [Compound 146]	5.74
6.91	3.773 µM	13.3 min	2.7 ug/mL	591 ×10⁻⁶ cm/s	N#Cc1ccc(-c2ccc3ncc4ccc(=O)n(-c5ccc(C(=O)N6CCOCC6)cc5)c4c3c2)cc1 [Compound 170]	6.77
